Results from patent US20130172244A1, “SUBCUTANEOUS THERAPEUTIC USE OF DPP-4 INHIBITOR” (priority 2011, published 2013).
Ends that are not written are not given here.

Experiments:
[1] = tested on: rats fed a high-fat diet (diet induced obesity); test: Chronic treatment in non-diabetic model of diet induced obesity: body weight, total body fat, liver fat, intramyocellular fat (MRS); assay type: in vivo; settings: 6 weeks, linagliptin 10 mg/kg, sibutramine 5 mg/kg; for Body weight % baseli. / Intra-myocellular fat % baseli. / Liver fat % baseli. / Total body fat % baseli.: versus baseline; for Body weight % contr. / Intra-myocellular fat % contr. / Liver fat % contr. / Total body fat % contr.: versus control; for Intra-myocellular fat % baseli. / Liver fat % baseli. / Total body fat % baseli. / Intra-myocellular fat % contr. / Liver fat % contr. / Total body fat % contr.: MRS
Protocol: Magnetic resonance spectroscopy (MRS) analysis of total body fat, muscle fat, and liver fat is performed before treatment and at the end of the study.

[2] = 2 h postprandial blood glucose excursions in patients with type 2 diabetes; assay type: in vivo, human; settings: Day 1; oral doses ≧2.5 mg
[3] = tested on: non-obese-diabetic (NOD) mice; test: Onset of diabetes and beta-cell mass in non-obese-diabetic (NOD) mice; assay type: in vivo; settings: female NOD mice
Source text: Though reduced pancreatic T-cell migration and altered cytokine production is considered important players for the onset of insulinitis the exact mechanism and effects on the pancreatic cell pool is still incompletely understood.
Bi-weekly plasma samples are obtained to determine onset of diabetes (BG>11 mmol/l).

[4] = tested on: RIP-B7.1 tg mice; test: Diabetes development in RIP-B7.1 transgenic mice after proinsulin/insulin A-chain plasmid vaccination; assay type: in vivo
Source text: Dipeptidyl peptidase (DPP)-4 inhibitors block incretin degradation by DPP-4. […] As in humans, diabetes development in this model critically depends on activated CD8 T cells. Diabetes develops in RIP-B7.1 tg mice after a single intramuscular (i.m.) vaccination (vac) of proinsulin (PI) plasmid DNA.
Vac A: Diabetes is induced using a PI-encoding plasmid resulting in an aggressive insulitis. Vac B: vac with insulin A-chain encoding plasmid results in a delayed diabetes development compared to vac A. With vac A (n=20 tg mice), diabetes incidence is 80% 5 weeks after vac, whereas vac B (n=34) results in 79% incidence after 12 wks in placebotreated mice.

[5] = tested on: normal-weight male Sprague-Dawley rats; test: Acute s.c. dosing, nocturnal food intake in normal-weight rats; assay type: in vivo; settings: linagliptin 0.1-0.5 mg/kg, GLP-1 0.2-0.4 mg/kg
Protocol: (§1) However, it is not known whether DPP-IV inhibition in conjunction with glucagon-like peptide (GLP)-1 administration would influence body weight.
(§2) Materials and methods: Normal-weight and DIO male Sprague-Dawley rats were used for acute and chronic dosing experiments, respectively. All rats were stratified to treatment groups according to individual body weight and whole-body fat mass. Linagliptin+GLP-1 combination treatment was evaluated in both acute and chronic treatment settings and compared with monotherapy and vehicle controls. […] For comparison, DIO rats were exposed to 28 days of liraglutide monotherapy. All drugs were administered twice daily subcutaneously (s.c.). […] In comparison, chronic liraglutide (0.2 mg/kg) treatment evoked a long-lasting hypophagic response with a weight loss of −10.8±0.5% and 12.2±0.6% at day 14 and 28, respectively.

[6] = tested on: DIO male Sprague-Dawley rats; test: Chronic s.c. dosing, body weight and food intake in diet-induced obese (DIO) rats; assay type: in vivo; settings: DIO rat, s.c. twice daily
Protocol: as §1, §2

[7] = clinical; settings: human, urine, po
[8] = Safety and tolerability in people with type 2 diabetes
[9] = Pharmacokinetics of BI 1356 in patients with type 2 diabetes, multiple oral doses once daily for 12 days
[10] = 2.5 mg oral once daily, steady state (Day 12), gMean (gCV)
[11] = 10 mg oral once daily, steady state (Day 12), gMean (gCV)

CC(C)CC(N(C)C)C1(c2ccc(Cl)cc2)CCC1 (stereo not drawn) [Sibutramine, reference compound]
Body weight % baseli. [1]: +1% | Body weight % contr. [1]: −12% | Intra-myocellular fat % baseli. [1]: −34% | Liver fat % baseli. [1]: −29% | Total body fat % baseli. [1]: −0.4% | Intra-myocellular fat % baseli. ([1]; listed as sibutramine): −34% | Intra-myocellular fat % contr. [1]: −55% | Liver fat % contr. [1]: −30% | Total body fat % contr. [1]: −12% | Liver fat % contr. ([1]; listed as sibutramine): −30% | Total body fat % contr. ([1]; listed as sibutramine): −12%

CC#CCn1c(N2CCC[C@@H](N)C2)nc2c1c(=O)n(Cc1nc(C)c3ccccc3n1)c(=O)n2C [linagliptin]
decrease in 2 h postprandial blood glucose excursions [2]: ≥ 80% | Body weight % baseli. [1]: +12% | Body weight % contr. [1]: −3% | Body weight % contr. ([1]; listed as Linagliptin): −3% | Intra-myocellular fat % baseli. [1]: −24% | Liver fat % baseli. [1]: −30% | Total body fat % baseli. [1]: +5% | Intra-myocellular fat % baseli. ([1]; listed as Linagliptin): −24% | Intra-myocellular fat % contr. [1]: −36% | Liver fat % contr. [1]: −39% | Total body fat % contr. [1]: −5% | Liver fat % contr. ([1]; listed as Linagliptin): −39% | Total body fat % contr. ([1]; listed as Linagliptin): −5% | incidence of diabetes (BG>11 mmol/l) at the end of the study period ([3]; 60 days, diet with 0.083 g linagliptin/kg chow (3-10 mg/kg p.o.), control 18 of 30): 9 out of 30 | beta cell mass (insulin immunoreactivity, stereology) ([3]; 60 days, linagliptin in diet, vehicle 0.18±0.03): 0.48±0.09 mg | total islet mass ([3]; 60 days, linagliptin in diet, vehicle 0.40±0.04): 0.70 ± 0.09 mg | peri-islet infiltrating lymphocytes ([3]; 60 days, linagliptin in diet, vehicle 1.06±0.15): 0.79 ± 0.12 mg | active plasma GLP-1 at termination ([3]; versus control): higher | Serum levels of the regulatory cytokine IL-10 ([4]; linagliptin 3 mg/kg/day oral): significantly upregulated | islet insulin content after diabetes onset ([4]; linagliptin 3 mg/kg/day oral): partially preserved | number of islet antigen-specific CD8 T cells expressing IFN-γ (FACS and ELISPOT) ([4]; linagliptin 3 mg/kg/day oral versus placebo): equal number | diabetes incidence ([4]; vac A (PI-encoding plasmid), after wk 8 of follow-up, linagliptin 3 mg/kg/day oral, placebo 80% at 5 wks): 80% | diabetes incidence ([4]; vac B (insulin A-chain plasmid), during 14 wks follow up, linagliptin 3 mg/kg/day oral, control 92% wk 14): ≤ 62% | effect on nocturnal food intake [5]: no effect | effect of 14 days of monotherapy [6]: no effect | CL renal [7]: 14 to 70 mL/min | CL renal ([7]; 5 mg): ~70 mL/min | safety and tolerability [8]: placebo-like safety and tolerability | feT,ss ([9]; 1 mg oral once daily, steady state (Day 12), gMean (gCV)): 3.34 (38.3) % | fe0-24 ([9]; 2.5 mg oral once daily for 12 days, gMean (gCV)): 0.139 (51.2) % | AUCT,ss [9, 10]: 117 (16.3) nmol · h/L | feT,ss [9, 10]: 3.06 (45.1) % | fe0-24 ([9]; 5 mg oral once daily for 12 days, gMean (gCV)): 0.453 (125) % | feT,ss ([9]; 5 mg oral once daily, steady state (Day 12), gMean (gCV)): 6.27 (42.2) % | fe0-24 ([9]; 10 mg oral once daily for 12 days, gMean (gCV)): 0.919 (115) % | T1/2,ss [9, 11]: 130 (11.7) h | feT,ss [9, 11]: 3.22 (34.2) % | form and path of excretion ([9]; human, in vivo): primarily excreted unchanged via the bile | mean accumulation ratio RA,AUC ([9]; oral doses above 1 mg once daily): ≤ 1.4 | fraction excreted via the kidney ([9]; therapeutic oral dose levels): < 7 % of the administered oral dose | main route of excretion ([9]; therapeutic oral dose levels): mainly excreted via the liver

GLP-1: native glucagon-like peptide (GLP)-1 (7-36) (HAEGTFTSDVSSYLEGQAAKEFIAWLVKGR; ends and bridges not checked; UniProt P01275 98-127, looked up)
effect on nocturnal food intake [5]: rapid-onset suppression of food intake | effect of 14 days of monotherapy [6]: no effect
